Where two headings read alike, the source gives them in different places.
Experiments:
[1] = target: T1, AEA-DA lipid probe targets in Neuro2a cells (Mus musculus, UniProt P22315)
T1 sequence (P22315 54-422): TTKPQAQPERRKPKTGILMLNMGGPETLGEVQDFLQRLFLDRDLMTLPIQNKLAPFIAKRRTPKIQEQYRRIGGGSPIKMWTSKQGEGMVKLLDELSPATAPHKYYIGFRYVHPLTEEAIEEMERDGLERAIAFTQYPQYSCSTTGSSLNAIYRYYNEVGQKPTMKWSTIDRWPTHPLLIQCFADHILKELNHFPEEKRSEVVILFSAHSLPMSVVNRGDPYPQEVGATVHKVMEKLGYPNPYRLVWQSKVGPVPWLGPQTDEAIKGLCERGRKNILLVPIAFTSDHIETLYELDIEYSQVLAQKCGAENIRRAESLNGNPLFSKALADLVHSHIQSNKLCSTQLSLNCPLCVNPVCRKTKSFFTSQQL

[2] = target: T2, AEA-DA lipid probe targets in Neuro2a cells (Mus musculus, UniProt P32037)
T2 sequence (P32037 1-493): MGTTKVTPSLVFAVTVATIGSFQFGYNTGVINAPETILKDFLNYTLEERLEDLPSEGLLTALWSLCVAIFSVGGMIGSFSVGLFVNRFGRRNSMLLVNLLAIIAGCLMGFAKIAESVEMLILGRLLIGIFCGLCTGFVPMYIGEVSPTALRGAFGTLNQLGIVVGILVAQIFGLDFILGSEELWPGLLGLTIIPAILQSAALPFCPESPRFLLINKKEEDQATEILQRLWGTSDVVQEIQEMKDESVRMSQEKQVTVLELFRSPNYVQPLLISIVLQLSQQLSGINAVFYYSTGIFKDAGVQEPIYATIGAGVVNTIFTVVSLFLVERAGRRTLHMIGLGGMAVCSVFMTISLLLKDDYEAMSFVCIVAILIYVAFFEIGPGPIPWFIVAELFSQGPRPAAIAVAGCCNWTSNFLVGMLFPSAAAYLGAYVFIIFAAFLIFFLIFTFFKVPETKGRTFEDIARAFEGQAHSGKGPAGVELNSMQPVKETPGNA

[3] = target: AEA-DA lipid probe targets in Neuro2a cells (Mus musculus, UniProt P57716)
Sequence of AEA-DA lipid probe targets in Neuro2a cells (Mus musculus, UniProt P57716) (P57716 28-708): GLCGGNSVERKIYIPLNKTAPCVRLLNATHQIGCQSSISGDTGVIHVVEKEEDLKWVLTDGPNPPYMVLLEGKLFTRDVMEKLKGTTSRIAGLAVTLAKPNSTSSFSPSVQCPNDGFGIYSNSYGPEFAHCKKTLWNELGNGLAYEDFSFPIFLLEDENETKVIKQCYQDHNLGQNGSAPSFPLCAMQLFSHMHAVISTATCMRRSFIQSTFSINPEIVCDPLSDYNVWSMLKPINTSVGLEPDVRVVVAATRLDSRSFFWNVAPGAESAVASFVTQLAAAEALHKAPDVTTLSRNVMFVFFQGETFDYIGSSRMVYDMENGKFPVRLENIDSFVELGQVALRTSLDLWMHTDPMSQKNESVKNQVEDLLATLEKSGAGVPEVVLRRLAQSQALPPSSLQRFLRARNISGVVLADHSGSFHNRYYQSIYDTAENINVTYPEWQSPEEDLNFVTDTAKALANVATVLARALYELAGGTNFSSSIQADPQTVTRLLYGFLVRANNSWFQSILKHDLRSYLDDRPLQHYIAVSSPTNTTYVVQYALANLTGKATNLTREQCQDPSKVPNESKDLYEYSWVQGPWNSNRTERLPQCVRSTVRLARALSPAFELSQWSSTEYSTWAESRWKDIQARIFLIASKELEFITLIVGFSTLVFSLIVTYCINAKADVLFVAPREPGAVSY

[4] = target: AEA-DA lipid probe targets in Neuro2a cells (Mus musculus, UniProt Q8BWM0)
Sequence of AEA-DA lipid probe targets in Neuro2a cells (Mus musculus, UniProt Q8BWM0) (Q8BWM0 whole entry): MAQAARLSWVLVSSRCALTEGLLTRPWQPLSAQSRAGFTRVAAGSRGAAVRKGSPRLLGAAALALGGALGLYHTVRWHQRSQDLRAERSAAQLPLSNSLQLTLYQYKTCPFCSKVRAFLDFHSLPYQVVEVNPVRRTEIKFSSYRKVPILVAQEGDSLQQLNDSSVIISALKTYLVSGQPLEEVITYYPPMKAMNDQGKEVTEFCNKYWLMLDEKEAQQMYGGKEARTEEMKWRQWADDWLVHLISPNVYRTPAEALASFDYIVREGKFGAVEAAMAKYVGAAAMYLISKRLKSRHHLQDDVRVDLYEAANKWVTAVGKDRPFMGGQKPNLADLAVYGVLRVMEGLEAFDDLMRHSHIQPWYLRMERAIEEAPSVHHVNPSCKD

[5] = target: AEA-DA lipid probe targets in Neuro2a cells (Mus musculus, UniProt Q91XC9)
Sequence of AEA-DA lipid probe targets in Neuro2a cells (Mus musculus, UniProt Q91XC9) (Q91XC9 whole entry): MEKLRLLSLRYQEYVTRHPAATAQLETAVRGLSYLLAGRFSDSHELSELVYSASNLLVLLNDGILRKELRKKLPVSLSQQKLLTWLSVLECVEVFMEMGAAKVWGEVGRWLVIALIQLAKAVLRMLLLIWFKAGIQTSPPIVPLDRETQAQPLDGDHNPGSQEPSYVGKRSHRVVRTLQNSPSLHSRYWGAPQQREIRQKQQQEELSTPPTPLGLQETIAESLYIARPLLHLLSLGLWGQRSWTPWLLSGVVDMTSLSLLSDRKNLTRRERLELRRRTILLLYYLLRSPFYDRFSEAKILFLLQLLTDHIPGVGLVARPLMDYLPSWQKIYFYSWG

[6] = target: T3, AEA-DA lipid probe targets in Neuro2a cells (Mus musculus, UniProt Q9CY50)
T3 sequence (Q9CY50 22-286): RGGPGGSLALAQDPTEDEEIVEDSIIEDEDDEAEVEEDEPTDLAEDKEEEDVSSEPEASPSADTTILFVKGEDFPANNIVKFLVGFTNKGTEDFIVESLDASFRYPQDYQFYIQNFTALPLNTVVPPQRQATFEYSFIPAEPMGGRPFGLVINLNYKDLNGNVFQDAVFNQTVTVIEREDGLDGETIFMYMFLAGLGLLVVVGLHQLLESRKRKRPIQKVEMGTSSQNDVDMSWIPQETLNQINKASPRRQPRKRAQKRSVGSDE

[7] = target: AEA-DA lipid probe targets in Neuro2a cells (Mus musculus, UniProt Q9EQK7)
Sequence of AEA-DA lipid probe targets in Neuro2a cells (Mus musculus, UniProt Q9EQK7) (Q9EQK7 whole entry): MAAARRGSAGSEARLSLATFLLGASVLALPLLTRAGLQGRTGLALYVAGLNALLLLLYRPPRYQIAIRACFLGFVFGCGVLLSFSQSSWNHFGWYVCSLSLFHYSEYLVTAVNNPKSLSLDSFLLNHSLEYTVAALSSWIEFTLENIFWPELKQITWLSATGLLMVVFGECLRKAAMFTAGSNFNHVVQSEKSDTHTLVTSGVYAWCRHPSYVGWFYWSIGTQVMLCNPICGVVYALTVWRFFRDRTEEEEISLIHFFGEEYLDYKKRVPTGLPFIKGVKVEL

[8] = target: T4, AEA-DA lipid probe targets in Neuro2a cells (Mus musculus, UniProt Q5SW19)
T4 sequence (Q5SW19 1-1315): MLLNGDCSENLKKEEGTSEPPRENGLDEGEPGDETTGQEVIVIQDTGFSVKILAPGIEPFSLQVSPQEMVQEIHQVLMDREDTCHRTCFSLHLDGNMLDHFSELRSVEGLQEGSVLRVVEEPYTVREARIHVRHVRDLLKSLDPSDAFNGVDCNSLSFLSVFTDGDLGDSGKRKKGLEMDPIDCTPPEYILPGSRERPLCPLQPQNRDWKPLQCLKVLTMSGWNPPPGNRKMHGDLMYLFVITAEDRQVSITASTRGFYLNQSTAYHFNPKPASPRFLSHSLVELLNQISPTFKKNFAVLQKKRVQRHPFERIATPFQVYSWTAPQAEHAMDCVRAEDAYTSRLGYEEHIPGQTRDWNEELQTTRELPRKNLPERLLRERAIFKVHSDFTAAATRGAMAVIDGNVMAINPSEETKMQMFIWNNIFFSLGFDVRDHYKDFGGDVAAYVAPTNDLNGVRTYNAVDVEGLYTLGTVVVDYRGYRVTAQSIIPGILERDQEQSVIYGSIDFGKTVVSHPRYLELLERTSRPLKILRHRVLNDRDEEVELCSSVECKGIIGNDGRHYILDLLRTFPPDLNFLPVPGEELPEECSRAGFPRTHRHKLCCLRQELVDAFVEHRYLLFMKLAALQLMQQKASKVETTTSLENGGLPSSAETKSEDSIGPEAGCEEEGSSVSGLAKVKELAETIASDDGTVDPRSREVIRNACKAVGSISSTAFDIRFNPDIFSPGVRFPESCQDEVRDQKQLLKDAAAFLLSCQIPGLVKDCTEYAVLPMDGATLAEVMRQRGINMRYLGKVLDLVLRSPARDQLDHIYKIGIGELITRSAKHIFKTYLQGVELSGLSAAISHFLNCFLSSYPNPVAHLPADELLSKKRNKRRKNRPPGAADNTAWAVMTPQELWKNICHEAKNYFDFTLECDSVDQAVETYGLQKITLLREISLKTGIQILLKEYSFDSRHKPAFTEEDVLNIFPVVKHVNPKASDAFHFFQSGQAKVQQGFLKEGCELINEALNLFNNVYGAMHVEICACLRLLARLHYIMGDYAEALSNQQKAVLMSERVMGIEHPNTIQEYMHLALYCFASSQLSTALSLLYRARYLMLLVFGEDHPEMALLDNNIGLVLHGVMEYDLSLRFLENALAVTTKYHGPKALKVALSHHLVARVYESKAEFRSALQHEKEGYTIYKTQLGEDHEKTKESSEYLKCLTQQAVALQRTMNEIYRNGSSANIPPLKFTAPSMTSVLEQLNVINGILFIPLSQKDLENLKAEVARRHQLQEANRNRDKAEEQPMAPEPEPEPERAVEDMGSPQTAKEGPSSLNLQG

CCCCC/C=C\C/C=C\C/C=C\C/C=C\CCCC(=O)NCCO [AEA, anandamide, reference compound]
SILAC ratio, Fech ([1]; competitor 200 μM): 1.3 | SILAC ratio, Slc2a3 ([2]; competitor 200 μM): 1.0 | SILAC ratio Ncstn ([3]; competitor 200 μM): 1.6 | SILAC ratio, Ptges2 ([4]; competitor 200 μM): 2.1 | SILAC ratio, Pex16 ([5]; competitor 200 μM): 1.7 | SILAC ratio, Ssr1 ([6]; competitor 200 μM): 1.9 | SILAC ratio Icmt ([7]; competitor 200 μM): 1.5

O=C(/C=C/c1cccnc1)NCCCCC1CCN(C(=O)c2ccccc2)CC1 [FK-866, reference compound]
SILAC ratio, Fech ([1]; competitor 25 μM): 20.0 | SILAC ratio, Slc2a3 ([2]; competitor 25 μM): 1.1 | SILAC ratio Ncstn ([3]; competitor 25 μM): 1.1 | SILAC ratio Kiaa0664 ([8]; competitor 25 μM): 1.2 | SILAC ratio, Ptges2 ([4]; competitor 25 μM): 1.4 | SILAC ratio, Pex16 ([5]; competitor 25 μM): 1.1 | SILAC ratio, Ssr1 ([6]; competitor 25 μM): 1.3 | SILAC ratio Icmt ([7]; competitor 25 μM): 1.3

CN1CCN(C(=O)c2c(-c3ccccc3)c3cc([N+](=O)[O-])ccc3n2C)CC1 [KML110, (1-Methyl-5-nitro-3-phenyl-1H-indol-2-yl)(4-methylpiperazin-1-yl)methanone]
SILAC ratio, Fech ([1]; competitor 25 μM): 2.2 | SILAC ratio, Slc2a3 ([2]; competitor 25 μM): 1.2 | SILAC ratio Ncstn ([3]; competitor 25 μM): 1.3 | SILAC ratio Kiaa0664 ([8]; competitor 25 μM): 2.1 | SILAC ratio, Ptges2 ([4]; competitor 25 μM): 1.8 | SILAC ratio, Pex16 ([5]; competitor 25 μM): 1.4 | SILAC ratio, Ssr1 ([6]; competitor 25 μM): 1.7 | SILAC ratio Icmt ([7]; competitor 25 μM): 1.0

CN1CCN(C(=O)c2[nH]c3ccc([N+](=O)[O-])cc3c2-c2ccccc2)CC1 [MJN228, (4-Methylpiperazin-1-yl)(5-nitro-3-phenyl-1H-indol-2-yl)methanone]
SILAC ratio, Fech ([1]; competitor 10 μM): 1.0 | SILAC ratio, Fech ([1]; competitor 25 μM): 2.4 | SILAC ratio, Fech ([1]; competitor 50 μM): 3.0 | SILAC ratio, Fech ([1]; competitor 100 μM): 2.9 | SILAC ratio, Slc2a3 ([2]; competitor 10 μM): 1.2 | SILAC ratio, Slc2a3 ([2]; competitor 25 μM): 1.4 | SILAC ratio, Slc2a3 ([2]; competitor 50 μM): 1.2 | SILAC ratio, Slc2a3 ([2]; competitor 100 μM): 1.2 | SILAC ratio Ncstn ([3]; competitor 10 μM): 1.3 | SILAC ratio Ncstn ([3]; competitor 25 μM): 1.6 | SILAC ratio Ncstn ([3]; competitor 50 μM): 1.2 | SILAC ratio Ncstn ([3]; competitor 100 μM): 1.8 | SILAC ratio Kiaa0664 ([8]; competitor 10 μM): 1.5 | SILAC ratio Kiaa0664 ([8]; competitor 25 μM): 2.2 | SILAC ratio Kiaa0664 ([8]; competitor 50 μM): 1.0 | SILAC ratio Kiaa0664 ([8]; competitor 100 μM): 1.9 | SILAC ratio, Ptges2 ([4]; competitor 10 μM): 1.3 | SILAC ratio, Ptges2 ([4]; competitor 25 μM): 1.4 | SILAC ratio, Ptges2 ([4]; competitor 100 μM): 2.3 | SILAC ratio, Pex16 ([5]; competitor 10 μM): 0.9 | SILAC ratio, Pex16 ([5]; competitor 25 μM): 1.5 | SILAC ratio, Pex16 ([5]; competitor 50 μM): 2.3 | SILAC ratio, Pex16 ([5]; competitor 100 μM): 2.2 | SILAC ratio, Ssr1 ([6]; competitor 10 μM): 1.3 | SILAC ratio, Ssr1 ([6]; competitor 25 μM): 1.7 | SILAC ratio, Ssr1 ([6]; competitor 50 μM): 1.8 | SILAC ratio, Ssr1 ([6]; competitor 100 μM): 3.0 | SILAC ratio Icmt ([7]; competitor 10 μM): 0.9 | SILAC ratio Icmt ([7]; competitor 25 μM): 0.9 | SILAC ratio Icmt ([7]; competitor 50 μM): 0.6 | SILAC ratio Icmt ([7]; competitor 100 μM): 0.5

C=CCN(C)CCCCCCOc1ccc(C(=O)c2ccc(Br)cc2)c(F)c1 [Ro 48-8071, reference compound]
SILAC ratio, Fech ([1]; competitor 25 μM): 1.4 | SILAC ratio, Slc2a3 ([2]; competitor 25 μM): 1.0 | SILAC ratio Ncstn ([3]; competitor 25 μM): 1.0 | SILAC ratio Kiaa0664 ([8]; competitor 25 μM): 1.0 | SILAC ratio, Ptges2 ([4]; competitor 25 μM): 1.3 | SILAC ratio, Pex16 ([5]; competitor 25 μM): 1.3 | SILAC ratio, Ssr1 ([6]; competitor 25 μM): 1.3 | SILAC ratio Icmt ([7]; competitor 25 μM): 1.6
